Values after ≈ are worked out from the molar mass of the structure shown. Where two headings read alike, the source gives them in different places.
Tests used:
[1] = test system: Shigella propagation in Caco2 cells; test: Inhibition of Shigella propagation in Caco2 cells assay; format: cell-based, Shigella flexneri; settings: for IC50: INCACO2CELLS, Caco-2
Description: The inhibition of Shigella propagation in Caco2 cells assay was performed following the previously described protocol based on microcarrier cell culture which models the in vivo three-dimensional environment with the minor modifications. This protocol will be described in a forthcoming paper (V. Phat, A. Lim, S. Lozano, C. De Cozar-Gallardo, M. Castellote-Alvaro, J. Rodrigues, A. Villegas, D. Alvarez, E. Alvaro, L. Ballell-Pages, S. Baker, unpublished data) and is available upon request (see Data Availability Statement).

[2] = test system: S. flexneri 2457T-nl in THP-1 macrophages; test: Shigella intra-macrophage survival dose-response assay (luciferase readout)
Description: The experimental protocol for the Shigella intra-macrophage survival screen is divided into three time segments: (i) THP-1 macrophage and bacteria preparation 1 day prior to compound screen assay, (ii) THP-1 differentiation, invasion, gentamicin treatment, dispensing of infected cells onto plates pre-dispensed with compounds to be tested, and the beginning of their incubation performed on the same day, and (iii) dispensing of the Nano-Luc substrate and luminescence readout after 18 hours of incubation.
The assay was adapted to the 1,536-well plate format for the HTS. A multidrop dispenser with the small tube metal tip cassette (Thermo Fisher Scientific) was used to seed 5 µL of the cell suspension to plates pre-dispensed with compounds to be tested that were transferred to RT 1–1.5 hours before adding infected cells. Plates were incubated for 18 hours at 37°C in a humidified atmosphere with 5% CO2.
After incubation, the bacterial count is quantified by luminescence readout. Luminescence correlated linearly with the number of viable bacteria. The Nano-Luc substrate solution was prepared according to the manufacturer (Nano-Glo Luciferase Assay System, Promega, Madison, WI, USA). A multidrop dispenser with the small tube metal tip cassette (Thermo Fisher Scientific) was used to dispense 2 µL of substrate per well, and plates were stored in the dark prior to reading. Luminescence was read (0.1 s/well) on a microplate reader (EnVision, PerkinElmer) after 30 minutes of incubation at RT.
The dose-response assay was performed following the above protocol using different plate formats.

[3] = biological target: T1, Nano-Luc reporter (S. flexneri 2457T-nl reporter strain) (Oplophorus gracilirostris, UniProt Q9GV45, A31E/A60N/A81I/F95D/I117V/K70R/L54V/L99Q/M102K/N193R/P142E/Q151K/Q38R/Q45L/V71I/Y165I); test: Nano-Luc inhibition (assay readout interference); format: cell-based
T1 construct: expressed in transfected cells; host or cells: Shigella flexneri serotype 2a strain 2457T carrying plasmid pMK-RQ-nl
T1 sequence (Q9GV45 28-196 with tags or gaps with the stated changes limits assumed): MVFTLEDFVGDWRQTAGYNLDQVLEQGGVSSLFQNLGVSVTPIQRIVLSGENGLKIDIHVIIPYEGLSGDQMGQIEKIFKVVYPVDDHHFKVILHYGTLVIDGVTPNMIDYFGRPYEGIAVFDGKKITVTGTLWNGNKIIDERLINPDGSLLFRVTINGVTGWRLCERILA

S. flexneri 2457T = test: Shigella antibacterial assay (resazurin); format: cell-based, Shigella flexneri; settings: for MIC90: S. flexneri 2457T, resazurin assay
Description: An antibacterial assay against S. flexneri 2457T was performed according to the previously described protocol ([40]). The antibacterial assay was used to determine the MIC90 values of potential inhibitors for S. flexneri 2457T. The assay measures the effect of compounds on the bacteria using resazurin (Thermo Fisher Scientific) measurement as surrogate of bacterial viability. Briefly, to perform the extracellular dose responses, compounds were pre-dispensed in DMSO, and threefold serial dilutions were made for each compound into 384-well plate format. Bacterial inoculum for the assay was prepared in MH medium, resulting at 1 × 10^6 CFU/mL, and 5 µL of this culture was dispensed per well. Then, plates were incubated at 37°C overnight. The resazurin reagent (10 µL) was added to each well followed by an incubation at RT and darkness for 3 hours. The fluorescence intensity of the assay plates was measured using microplate reader (EnVision, PerkinElmer). For MIC90 determination, data were normalized by using DMSO at a final concentration of 0.5% as the negative control (100% bacterial growth) and moxifloxacin at a final concentration of 20 µM as the positive control (0% bacterial growth). The experiment was done in duplicate.

[4] = Shigella flexneri, THP-1, 18 h, read-out: Survival inhibition IC50
[5] = read-out: Nano-Luc interference IC50, S. flexneri 2457T-nl reporter strain in MH medium, 18 hours
[6] = Shigella flexneri, THP-1, read-out: Shigella Intra-macrophage Survival IC50

| SMILES | IC50 [1] [µM] | IC50 [2, 4] [µM] | IC50 [3] [µM] | also measured |
| --- | --- | --- | --- | --- |
| CC(C)c1noc2ncc(C(=O)c3ccccc3O)cc12 [Compound S-316-01] | 1.9 | 1.3 |  |  |
| Cc1ccccc1-c1c(C#N)c(N)nc(SCc2ccccc2)c1C#N [AN1-77-01] | 14 | 0.79 |  |  |
| CN(C(=O)Cc1cccs1)C1(C(=O)NC2CCCCC2)CCCCC1 [Compound S-185-01] | 4.3 | 0.7 |  | IC50 [3, 5]: 3.8 µM |
| COc1ccc(CCNC(=O)c2nc(O)c3nnn(Cc4ccc(F)cc4)c3n2)cc1OC [Compound S-169-01] | 21 | 0.59 | 12 |  |
| CCN(C(=O)Cn1c(-c2nonc2N)nc2ccccc21)c1ccccc1 [Compound S-134-02] | 4.9 | 0.68 | 5.1 |  |
| N#Cc1cc(C(=O)c2ccccc2O)cn(-c2ccc(Cl)cc2)c1=O [AN1-152-02] | 0.3 | 0.0039 | 3.7 |  |
| CC(C)(C)C(=O)OCOC(=O)[C@@H]1N2C(=O)[C@@H](/N=C/N3CCCCCC3)[C@H]2SC1(C)C [Pivmecillinam, pivmecillinam] |  |  |  | MIC relative to survival IC50 (times higher) (S. flexneri 2457T; MIC vs intra-macrophage survival IC50): very similar; MIC90 (S. flexneri 2457T; Shigella flexneri): 1 µM (≈ 0.44 µg/mL); IC50 [2, 6]: 0.9 µM |
| COc1ccc(CN(C)S(=O)(=O)c2nnc(NC(=O)c3cccc(Cl)c3)s2)cc1OC [DS-299-02] | 2.5 | 0.8 | 4.6 |  |
| N#Cc1ccc(C(=O)Nc2nnc(-c3ccncc3)s2)cc1 [AN2-45-02] | 14 | 0.89 |  |  |
| Cc1ccc(-n2cc(C(=O)c3cc(C)ccc3O)cc(C#N)c2=O)cc1 [AN1-152-05] | 0.3 | 0.1 | 12 |  |
| Cc1ccc(-n2cc(C(=O)c3cc(Cl)ccc3O)cc(C#N)c2=O)cc1 [AN1-152-04] | 6.2 | 0.57 |  |  |
| COc1ccc(-n2cc(C(=O)c3cc(C)ccc3O)cc(C#N)c2=O)cc1 [AN1-152-07] | 0.2 | 0.21 | 27 |  |
| Cc1c(-c2cccs2)[nH]c2c(C#N)cnn2c1=O [AN-5-02] | 2.1 | 0.09 | 0.78 |  |
| CC[C@H]1OC(=O)[C@H](C)[C@@H](O[C@H]2C[C@@](C)(OC)[C@@H](O)[C@H](C)O2)[C@H](C)[C@@H](O[C@@H]2O[C@H](C)C[C@H](N(C)C)[C@H]2O)[C@](C)(O)C[C@@H](C)CN(C)[C@H](C)[C@@H](O)[C@]1(C)O [Azithromycin, azithromycin, reference compound] |  |  |  | MIC90 (S. flexneri 2457T; Shigella flexneri): 10 µM (≈ 7.49 µg/mL); IC50 [2, 6]: 0.08 µM |
| N#Cc1cc(C(=O)c2ccccc2O)cn(C2CCCC2)c1=O [AN1-152-03] | 1.7 | 0.48 | 62 |  |
| COc1ccc(-n2nnnc2SC(C(=O)N(C)C)c2ccccc2)cc1 (stereo not drawn) [Compound S-28-01] | 4.5 | 0.99 | 5 |  |
| COc1ccc(N2CCN(c3nc4ncccc4o3)CC2)cc1 [Compound S-281-01] | 24 | 0.64 | 28 |  |
| Cc1noc2ncn(Cc3nc(Cc4ccccc4F)no3)c(=O)c12 [Compound S-82-01] | 19 | 1 | 19 |  |
| CC1(C)S[C@@H]2[C@H](/N=C/N3CCCCCC3)C(=O)N2[C@H]1C(=O)O [Mecillinam, mecillinam, reference compound] |  |  |  | MIC90 (S. flexneri 2457T; Shigella flexneri): 0.2 µM (≈ 0.0651 µg/mL); IC50 [2, 6]: 0.7 µM |
| c1ccc(-n2nnnc2-c2cnoc2-c2cccs2)cc1 [PT-297–03] | 3 | 0.5 | 8.1 |  |
| CO/N=C(\C(=O)N[C@@H]1C(=O)N2C(C(=O)O)=C(CSc3nc(=O)c(=O)[nH]n3C)CS[C@H]12)c1csc(N)n1 [Ceftriaxone, ceftriaxone, reference compound] |  |  |  | MIC90 (S. flexneri 2457T; Shigella flexneri): 0.1 µM (≈ 0.0555 µg/mL); IC50 [2, 6]: 0.01 µM |
| Cc1cc(CNC(=O)CCc2c(C)nc3cc(O)nn3c2C)no1 [Compound S-86-01] | 1 | 0.27 | 1.7 |  |

| SMILES | IC50 [1] [µM] | IC50 [2, 4] [µM] | IC50 [3] [µM] | also measured |
| --- | --- | --- | --- | --- |
| Cc1nn(-c2ccccc2)c(C)c1S(=O)(=O)Nc1nc2c(s1)CCCC2 [DS-61-01] | 2.3 | 0.5 | 2.2 |  |
| CCc1cccc(CC)c1NC(=O)c1c(-c2ccccc2)noc1C [Compound S-53-01] | 1.5 | 0.17 | 1.2 |  |
| COc1c(N2C[C@@H]3CCCN[C@@H]3C2)c(F)cc2c(=O)c(C(=O)O)cn(C3CC3)c12 [moxifloxacin, reference compound] |  |  |  | bacterial survival ([2]; 20 µM, macrophage permeable positive control): no detectable bacterial survival |
| Fc1ccc(-c2oncc2-c2nnnn2-c2ccccc2)c(F)c1 [PT-297-01] | 2.1 | 0.43 | 8.3 |  |
| COc1ccc(S(=O)(=O)Nc2ccc(Cl)cc2F)cc1[N+](=O)[O-] [DS2-187-03] | 3 | 0.7 |  |  |
| Cc1ncccc1Oc1ncc(Cl)cc1S(=O)(=O)Nc1cccc(Cl)c1 [DS-90-01] | 10 | 1.2 | 65 |  |
| Cc1ccc(NC(=O)CC2SC(N3N=C(c4cccs4)CC3c3ccccc3)=NC2=O)cc1 (stereo not drawn) [Compound S-10-03] | 1.1 | 0.62 |  |  |
| CCOc1ccc(-n2cc(C(=O)c3cc(F)ccc3O)cc(C#N)c2=O)cc1 [AN1-152-10] |  | 0.24 | 50 | Propagation in Caco2 IC50 [1]: Inactive |
| O=S(=O)(Nc1ccccc1C(F)(F)F)c1ccc(-c2ccc(F)cc2)s1 [DS1-32-05] | 3.1 | 0.56 | 3 |  |
| O=C(CN1CCc2ccccc2C1)Nc1cnccc1C(=O)O [Compound S-136-01] | 3.1 | 0.62 | 3 |  |
| CC(NC(=O)NC(C)c1cccs1)c1ccc2c(c1)OCCO2 (stereo not drawn) [Compound S-378-01] | 6.6 | 1 |  |  |
| COc1ccc(-c2ccn(CC[C@](C)(C(=O)NO)S(C)(=O)=O)c(=O)c2)c(F)c1 [PF-5081090, reference compound] |  |  |  | MIC90 (S. flexneri 2457T): 0.2 µM (≈ 0.0825 µg/mL); IC50 ([2]; read-out: Shigella Intra-macrophage Survival IC50, commercially available antibiotics, luciferase assay): 0.06 µM |
| Cc1ccc(C2=NN(C3=NC(=O)C(CC(=O)Nc4ccccc4)S3)C(c3ccccc3)C2)cc1 (stereo not drawn) [Compound S-10-01] | 0.5 | 0.41 | 11 |  |
| O=C(O)c1cn(C2CC2)c2cc(N3CCNCC3)c(F)cc2c1=O [Ciprofloxacin, ciprofloxacin, reference compound] |  |  |  | MIC90 (S. flexneri 2457T; Shigella flexneri): 0.07 µM (≈ 0.0232 µg/mL); IC50 [2, 6]: 0.007 µM |
| Fc1ccc(-c2oncc2-c2nnnn2-c2ccccc2)cc1F [PT-297-02] | 1.2 | 0.27 | 4.9 |  |
| Cc1ccc(-n2cc(C(=O)c3cc(F)ccc3O)cc(C#N)c2=O)cc1 [AN1-152-08] | 1.9 | 0.43 |  |  |
| N#Cc1cc(C(=O)c2ccccc2O)cn(-c2ccccn2)c1=O [AN1-152-01] | 2.7 | 0.31 | 25 |  |
| N#Cc1ccc(C(=O)Nc2cccc(-c3ccc(CN4CCNCC4)cc3)c2)cc1 [AN-30-01] |  | 0.88 |  | Propagation in Caco2 IC50 [1]: Inactive |
| O=S(=O)(Nc1ccc(F)cc1C(F)(F)F)c1ccc(-c2cccs2)s1 [DS1-32-04] | 3.8 | 0.41 |  | IC50 [3, 5]: 3.1 µM |
| COc1ccc2nc(NS(=O)(=O)c3cccc(C#N)c3)sc2c1 [DS-64-06] | 3.1 | 0.44 | 9.5 |  |
| Cc1cccc(-n2cc(C(=O)c3cc(F)ccc3O)cc(C#N)c2=O)c1 [AN1-152-09] | 10 | 0.73 |  |  |
| COc1ccc(-n2cc(C(=O)c3cc(Cl)ccc3O)cc(C#N)c2=O)cc1 [AN1-152-06] | 3.9 | 0.49 |  |  |

Reference: PMC10597453, “Novel inhibitors that target bacterial virulence identified via HTS against intra-macrophage survival of Shigella flexneri” (mSphere, 2023)
